1 molecule from patent publication US9487508B2, “SGC stimulators” (IRONWOOD PHARMACEUTICALS, INC., priority 2012, dated 2016) can be followed below.

Usually EC50 stands for the concentration at which the effect is half-maximal.

For assay [1], the system named is Thoracic aortic rings. The experiment in a line: Thoracic aortic rings assay (Example 5). The arrangement: species or system Sprague-Dawley rats. Conditions: rings contracted with 100 ng/mL phenylephrine. The method, then: Thoracic aortic rings were dissected from anesthetized (isoflurane) male Sprague-Dawley rats weighing 275-299 g. Tissues were immediately transferred to ice-cold Krebs-Henseleit solution, which had been aerated with 95% O2 and 5% CO2 for 30 minutes. Following removal of connective tissue, aortic sections were cut into 4 rings (˜2 mm each) and suspended on 2 L-shaped hooks, with one hook fixed at the bottom of the tissue bath (Schuler Organ Bath, Harvard Apparatus) and the other connected to a force transducer (F30 Force Transducer, Harvard Apparatus). Baths contained Krebs Henseleit solution (10 mL) heated to 37° C. and aerated with 95% O2 and 5% CO2. Rings were brought to an initial tension of 0.3-0.5 g and gradually raised to a resting tension of 1.0 g over 60 minutes. Rings were rinsed with Krebs Henseleit solution (heated to 37° C. and aerated with 95% 02 and 5% CO2) at 15 minute intervals until a stable baseline was obtained. Rings were considered to be stable after a resting tension of 1.0 g was maintained (for approximately 10 minutes) without need for adjustment. Rings were then contracted with 100 ng/mL phenylephrine by adding 100 uL of a 10 µg/mL phenylephrine stock solution. Tissues achieving a stable contraction were then treated in a cumulative, dose dependent manner with test compounds prepared in dimethylsulfoxide (DMSO). In some cases, tissues were rinsed three times over a 5 minute period with Krebs-Heinseleit's solution (heated to 37° C. and aerated with 95% 02 and 5% CO2), allowed to stabilize at baseline, and then used for characterization of other test articles or DMSO effects. All data were collected using the HSE-ACAD software provided by Harvard Apparatus. Percent relaxation effects were calculated in Microsoft Excel using the recorded tension value of 100 ng/mL phenylephrine treatment as 0% inhibition and treatment with 100 μM 3-isobutyl-1-methylxanthine as 100% inhibition. EC50 values were calculated from concentration-response curves generated with GraphPad Prism Software.
As an alternative thoracic aortic rings assay, the procedure of Example 5 was used except that percent relaxation effects were calculated in Microsoft Excel using the recorded tension value of 100 ng/mL phenylephrine treatment as 0% inhibition and, after washing the tissue with buffer, the original resting tension of the tissue was used as 100% inhibition.
The biological data for some of the compounds of Formula I or Formula Ib, in comparison with the known compound, BAY 41-2272, as the reference compound, determined by the thoracic aorta ring assay of Example 5 are presented in Table 6 below.

Assay [2] has as its target T1, Human soluble guanylate cyclase enzyme (hsGC) (Homo sapiens, UniProt Q02108+Q02153).
T1 construct: purchased Enzo Inc. ALX-201-177
T1 sequence (Q02153 1-619): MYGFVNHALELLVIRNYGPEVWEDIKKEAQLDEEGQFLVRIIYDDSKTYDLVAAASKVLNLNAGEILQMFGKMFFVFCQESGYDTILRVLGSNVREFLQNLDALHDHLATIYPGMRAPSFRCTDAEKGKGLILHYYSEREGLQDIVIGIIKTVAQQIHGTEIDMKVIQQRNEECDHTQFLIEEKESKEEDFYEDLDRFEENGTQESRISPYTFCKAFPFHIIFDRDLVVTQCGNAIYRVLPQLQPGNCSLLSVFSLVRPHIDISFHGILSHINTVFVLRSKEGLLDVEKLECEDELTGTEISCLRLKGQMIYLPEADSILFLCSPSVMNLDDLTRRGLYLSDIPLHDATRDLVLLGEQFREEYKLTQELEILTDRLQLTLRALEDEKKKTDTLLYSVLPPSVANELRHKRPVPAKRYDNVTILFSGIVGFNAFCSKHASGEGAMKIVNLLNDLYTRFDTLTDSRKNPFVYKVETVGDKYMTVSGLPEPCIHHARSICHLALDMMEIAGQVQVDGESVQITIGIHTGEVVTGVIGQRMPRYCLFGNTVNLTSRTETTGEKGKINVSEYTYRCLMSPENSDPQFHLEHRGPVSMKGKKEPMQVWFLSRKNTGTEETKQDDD
T1 sequence (Q02108 1-690): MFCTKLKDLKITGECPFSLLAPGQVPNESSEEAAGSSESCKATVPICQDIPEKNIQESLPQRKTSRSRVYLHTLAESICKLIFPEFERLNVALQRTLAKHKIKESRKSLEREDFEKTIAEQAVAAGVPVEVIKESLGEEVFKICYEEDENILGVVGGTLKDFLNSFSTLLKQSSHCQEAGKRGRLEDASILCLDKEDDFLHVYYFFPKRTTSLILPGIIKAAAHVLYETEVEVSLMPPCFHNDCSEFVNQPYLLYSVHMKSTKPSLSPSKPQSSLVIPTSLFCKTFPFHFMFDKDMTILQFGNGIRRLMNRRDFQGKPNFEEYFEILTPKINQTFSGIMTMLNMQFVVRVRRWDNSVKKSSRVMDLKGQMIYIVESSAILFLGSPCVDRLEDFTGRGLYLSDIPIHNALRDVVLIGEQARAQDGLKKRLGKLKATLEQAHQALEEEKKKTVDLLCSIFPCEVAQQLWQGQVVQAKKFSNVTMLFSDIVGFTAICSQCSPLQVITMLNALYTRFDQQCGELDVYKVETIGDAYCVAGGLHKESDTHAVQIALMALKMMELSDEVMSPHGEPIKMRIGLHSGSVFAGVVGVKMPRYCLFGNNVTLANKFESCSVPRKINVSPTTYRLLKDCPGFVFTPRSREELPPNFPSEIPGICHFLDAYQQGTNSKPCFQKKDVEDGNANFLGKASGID
The experiment in a line: Purified human sGC enzyme activity assay (without SNP). It counts as biochemical. Conditions: 30 μM compound, fold change of specific activity vs DMSO control. The method, then:
Human soluble guanylate cyclase enzyme (hsGC) obtained from Enzo Inc. (P/N: ALX-201-177) was used to evaluate the activity of test compounds. The assay reactions contained 0.1 M Tris (pH 8.0), 0.5 mg/mL BSA (pH 8.0), 2 mM DTT, 2 mM MgCl2, 300 μM GTP, 1 mM 3-isobutyl-1-methylxanthine (IBMX) and 5 ng human soluble guanylate cyclase enzyme. Test compounds in DMSO were then added (2 μL, 10 or 30 μM final concentration) and incubated (water, 200 μL, 96-well plate format) at 37° C. for 30 minutes. The controls were carried out using 2 μL DMSO. After the 30 minute incubation, the reaction was stopped with the addition of 200 μL of cold methanol. The plate was then centrifuged at 3,200 rpm for 10 minutes at room temperature. Supernatants (200 μL) were collected and transferred to a new 96 well plate for analysis by HPLC LC/MS/MS.
An 8 point cGMP (Sigma-Aldrich P/N: G6129) standard curve was prepared in assay buffer ranging from 0.156-20 μM. Samples for the cGMP standard curve were then diluted with an equal volume of methanol resulting in final cGMP concentrations of 0.078-10 μM.
The cGMP standard curve was generated using GraphPad Prism Software.
Calculations: Specific Activity was determined by the amount of cGMP formed (nmoles) per mg of sGC per min. Enzyme “fold-change” was calculated by dividing Specific Activity for test compounds by Specific Activity of DMSO controls.

SMILES strings stand for the structures. A value given as a limit tells only on which side of the number the result lay.

For the molecule `Nc1ccnc(-n2cc(-c3ncco3)c(Cc3ccccc3F)n2)n1` [Compound I-2], the “Aortic Ring Percent Relaxation at 1 μM” value in assay [1] (1 μM, resting tension = 100%) was “E (E = 60 or <80%)”. The “Aortic Ring Percent Relaxation at 3 μM” value in assay [1] (3 μM, resting tension = 100%) is “F (F = 80 to <100%)”. For the same molecule, the “Aortic Ring Percent Relaxation at 10 μM” value in assay [1] (10 μM, resting tension = 100%) is recorded as “G (G = 100 to <120%)”. Further, the EC50 in assay [1] (Rattus norvegicus, read-out: Aortic Ring EC50) is less than 2000 nM. Besides, the “Enzyme Activity (increase at 30 μM without SNP)” value in assay [2] is recorded as “C (C = 5 to <10 fold increase)”.
